Eight substances from PMC6152192, “Novel Methylselenoesters as Antiproliferative Agents” (Molecules : A Journal of Synthetic Chemistry and Natural …, 2017) can be followed below.

Assay type in all cases: cell-based
The subject of series [1] is 184B5 (non-malignant mammary epithelium). In words: MTT viability assay, 184B5. As to conditions: 184B5 non-malignant, 72 h, MTT; for CC50: read-out: LC50 (the source's name). As to the method: (§1) The novel compounds were tested against a panel of different cancer lines: PC-3 (prostate adenocarcinoma), MCF7 (mammary adenocarcinoma), HTB-54 (lung carcinoma), K-562 (chronic myelogenous leukemia) and HT-29 (colorectal adenocarcinoma). Two non-malignant cell lines, BEAS-2B (bronchial epithelial) and 184B5 (mammary epithelial) were also included to evaluate the toxicity of the novel synthesized compounds. The antiproliferative activity was measured with the [3-(4,5-dimethylthiazol-2-yl)-2,5-diphenyltetrazolium bromide] (MTT) assay after 72 h treatment. Six concentrations ranging from 0.1 to 100 μM were tested. MSA is largely known as the main CH3SeH putative precursor and was therefore included as positive control. The following parameters were calculated: GI50 (concentration which reduces the growth by 50%), TGI (concentration completely inhibiting growth) and LC50 (concentration that kills 50% of the cells).
(§2) All cells were purchased from the American Type Culture Collection (ATCC, Barcelona, Spain). HT-29 (colorectal adenocarcinoma), HTB-54 (grade III lung carcinoma), MCF7 (mammary adenocarcinoma), PC-3 (grade IV prostate adenocarcinoma) and K-562 (chronic myelogenous leukemia) were cultured in RPMI (Gibco, Madrid, Spain), 10% FBS (Gibco), 100 units/mL penicillin and 100 μg/mL streptomycin (Gibco). BEAS-2B cell line (normal epithelial lung) was cultured in DMEM (Gibco), 10% FBS, 100 units/mL penicillin and 100 μg/mL streptomycin. 184B5 (normal mammary gland) cell line was cultured in DMEM:F12 supplemented with 5% FBS, 1 × ITS (Lonza, Barcelona, Spain), 100 nM hydrocortisone (Sigma-Aldrich), 2 mM sodium pyruvate (Lonza), 20 ng/mL EGF (Sigma-Aldrich), 0.3 nM trans-retinoic acid (Sigma-Aldrich), 100 units/mL penicillin and 100 µg/mL streptomycin. Cells were cultured at 37 °C under 5% CO2.
(§3) Cell viability after treatment was assessed by the well-known 3-(4,5-dimethyl-thiazol-2-yl)-2,5-diphenyltetrazolium bromide (MTT, Sigma-Aldrich) assay. Briefly, 10,000 cells were seeded in 96-well plates, treated and incubated for 72 h. Dilutions of the compounds in cell medium were freshly prepared from a 0.01 M stock in DMSO. After treatment, 50 μL of MTT solution in PBS (2 mg/mL) were added and cells were incubated for 4 h. Medium was removed and 150 μL of DMSO was added to dissolve the formed formazan crystals. Absorbance was read at 550 nm in a microplate absorbance reader (Sunrise, Tecan, Männedorf, Switzerland).

In series [2] the test system is BEAS-2B (non-malignant bronchial epithelial). In words: MTT viability assay, BEAS-2B. The following applies: BEAS-2B non-malignant, 72 h, MTT; for CC50: read-out: LC50 (the source's name). As to the method:
as §1, §2, §3
In general terms: Formazan colour is commonly taken as a measure of viable cells.

The next series deals with HTB-54 (lung carcinoma). In words: MTT viability assay, HTB-54. The following applies: HTB-54, 72 h, MTT; for CC50: read-out: LC50 (the source's name). As to the method:
as §1, §2, §3

Series [3] deals with K-562 (chronic myelogenous leukemia). In words: MTT viability assay, K-562. As to conditions: K-562, 72 h, MTT; for CC50: read-out: LC50 (the source's name). As to the method:
as §1, §2, §3

The subject of series [4] is MCF7 (mammary adenocarcinoma). In words: MTT viability assay, MCF7. As to conditions: MCF7, 72 h, MTT; for CC50: read-out: LC50 (the source's name). As to the method:
as §1, §2, §3

Series [5] deals with HT-29 (colorectal adenocarcinoma). In words: MTT viability assay, HT-29. The following applies: HT-29, 72 h, MTT; for CC50: read-out: LC50 (the source's name). As to the method:
as §1, §2, §3

The subject of series [6] is PC-3 (prostate adenocarcinoma). In words: MTT viability assay, PC-3. As to conditions: PC-3, 72 h, MTT; for CC50: read-out: LC50 (the source's name). As to the method: as §1, §2, §3

What is called GI50 is the concentration giving 50% growth inhibition. For orientation: TGI means the concentration at which net growth stops. Low readings indicate greater sensitivity of the cells, high ones lower sensitivity of the cells.

Several values for one entry are separate records, joined by “and”; a condition that tells them apart may be missing. Equal values may be shown once.

Take “Dimethyl 5-cyano-1,3-benzenedicarboselenoate [Compound 14]”: the GI50 turned out to be 3.8 ± 0.7 µM in series [1]; 3.2 ± 0.7 µM in series [2]; 3.8 ± 0.6 µM with HTB-54 (lung carcinoma); 29.9 ± 0.6 µM in series [3]; 4.9 ± 0.8 µM in series [4]; 3.8 ± 0.1 µM in series [5]. In addition, the GI50 in series [6] is 7.2 ± 3.5 µM. Besides, the TGI in series [1] worked out at 6.5 ± 0.6 µM; in series [2], 5.5 ± 0.5 µM; in series [3], 54.7 ± 0.7 µM; in series [4], 8.4 ± 1.1 µM; in series [5], 7.9 ± 0.7 µM; in series [6], 32.3 ± 3.7 µM. Also, the CC50 is 9.3 ± 0.7 µM in series [1]; 7.8 ± 0.3 µM in series [2]; 66.5 ± 4.5 µM with HTB-54 (lung carcinoma); 79.5 ± 0.7 µM in series [3]; 54.4 ± 2.7 µM in series [4]; more than 100 µM in series [5]. Moreover, the CC50 in series [6] was found to be 68.7 ± 3 µM.

With “Methyl 1,3-benzodioxole-5-carboselenoate [Compound 8]”, the GI50 in series [1] is 3.7 ± 0.3 µM; in series [2], 3.1 ± 0.3 µM; in the series on HTB-54 (lung carcinoma), 6 ± 0.9 µM; in series [3] it was 29.7 ± 4.7 µM; in series [4] it was 4.6 ± 0.5 µM; in series [5] it was 5.9 ± 0.8 µM. Also, the concentration for 50% growth inhibition (GI50) in series [6] came to 5.7 ± 1.6 µM. The TGI in series [1] came to 6.4 ± 0.2 µM; in series [2], 5.6 ± 0.6 µM; with HTB-54 (lung carcinoma), 23.2 ± 2.6 µM; in series [3] it was 62.6 ± 3.9 µM; in series [4] it was 9.2 ± 1.3 µM; in series [5], 27.7 ± 4.5 µM. The TGI in series [6] was determined as 11.0 ± 3.1 µM. The CC50 in series [1] worked out at 9 ± 0.4 µM; in series [2] it was 8 ± 1.1 µM; with HTB-54 (lung carcinoma) it was 77.1 ± 4.9 µM; in series [3], 95.4 ± 4.9 µM; in series [4], 68.7 ± 2.5 µM; in series [5] it was 81.1 ± 4 µM. Also, in series [6], the CC50 came out at 96 ± 4.7 µM.

In the case of “Methyl 2-(4-pyridyl)thiazole-4-carboselenoate [Compound 12]”, the GI50 was 3.4 ± 0.3 µM in series [1]; 3.7 ± 1.3 µM in series [2]; 9.8 ± 5.1 µM with HTB-54 (lung carcinoma); 82 ± 4.4 µM in series [3]; 4.4 ± 1 µM in series [4]; 5.1 ± 0.1 µM in series [5]. The GI50 in series [6] is > 10 µM and 16.9 µM. The TGI in series [1] was 6.5 ± 0.8 µM; in series [2], 6.4 ± 1.3 µM; in the series with HTB-54 (lung carcinoma) it was 44.9 ± 3.7 µM; in series [3], more than 100 µM; in series [4], 8.1 ± 1.7 µM; in series [5] it was 14.2 ± 6.6 µM. The same substance displayed a TGI in series [6] of 50.9 ± 4.9 µM. Besides, the CC50 in series [1] was 9.6 ± 2.8 µM; in series [2], 9.2 ± 1 µM; in the series on HTB-54 (lung carcinoma) it was 80.5 ± 3.5 µM; in series [3], more than 100 µM; in series [4], 56.2 ± 9.6 µM; in series [5], more than 100 µM. Besides, the CC50 in series [6] stood at 85 ± 4.7 µM.

Regarding “Methyl 2-phenyl-4-quinolinecarboselenoate [Compound 10]”, the GI50 in series [1] was 3.9 ± 0.7 µM; in series [2], 3.1 ± 0.5 µM; with HTB-54 (lung carcinoma), 5.9 ± 1.1 µM; in series [3] it was 9.7 ± 4.9 µM; in series [4], 5.6 ± 1.3 µM; in series [5], 4.1 ± 0.3 µM. The same substance came in with a GI50 in series [6] of 4.4 ± 1.3 µM. The TGI in series [1] amounted to 6.3 ± 0.5 µM; in series [2] it was 5.5 ± 0.4 µM; with HTB-54 (lung carcinoma) it was 16.7 ± 2.3 µM; in series [3], 59.1 ± 3.5 µM; in series [4] it was 51.3 ± 3.7 µM; in series [5], 7.5 ± 0.7 µM. For the same substance, the CC50 in series [1] is 8.7 ± 0.4 µM; in series [2], 7.8 ± 0.5 µM; in the series on HTB-54 (lung carcinoma) it was 64.4 ± 4.2 µM; in series [3], more than 100 µM; in series [4], more than 100 µM; in series [5] it was 35 ± 2.4 µM. Besides, the CC50 in series [6] is 70.9 ± 5.2 µM.

Consider “Methyl 2-thiophencarboselenoate [Compound 4]”, for which the GI50 in series [1] was 3.6 ± 0.8 µM; in series [2], 2.9 ± 0.3 µM; with HTB-54 (lung carcinoma) it was 8.5 ± 3.1 µM; in series [3] it was 40.6 ± 4.5 µM; in series [4], 5.3 ± 1.4 µM; in series [5] it was 3.4 ± 0.2 µM. The substance also had a concentration for 50% growth inhibition (GI50) in series [6] of 5.2 ± 0.9 µM. For the same substance, the TGI in series [1] was 7.2 ± 1.4 µM; in series [2], 5.8 ± 0.7 µM; with HTB-54 (lung carcinoma) it was 39.0 ± 3.1 µM; in series [3], 74.6 ± 4.9 µM; in series [4], 22.8 ± 3.8 µM; in series [5] it was 7.2 ± 1.2 µM. This substance also had a TGI in series [6] of 19.4 ± 3.6 µM. The CC50 in series [1] was 27.9 ± 4.6 µM; in series [2], 8.7 ± 2.1 µM; in the series on HTB-54 (lung carcinoma) it was 73.9 ± 4.1 µM; in series [3] it was more than 100 µM; in series [4], 89.6 ± 4.1 µM; in series [5] it was 47.5 ± 3.2 µM. For the same substance, in series [6], the CC50 was determined as 62 ± 4.9 µM.

As for “Methyl 4-methoxybenzoselenoate [Compound 2]”, the GI50 in series [1] came out at 3.7 ± 0.8 µM; in series [2], 3.2 ± 0.5 µM; with HTB-54 (lung carcinoma), 6.8 ± 1.7 µM; in series [3], 40.8 ± 4.8 µM; in series [4], 4.1 ± 0.8 µM; in series [5] it was 4.1 ± 0.1 µM. It took 7.3 ± 1.7 µM to inhibit growth in series [6] by half (GI50). Also, the TGI amounted to 6.4 ± 1.5 µM in series [1]; 5.8 ± 0.6 µM in series [2]; 29.7 ± 4.3 µM in the series on HTB-54 (lung carcinoma); 70.6 ± 5.9 µM in series [3]; 9.3 ± 4.1 µM in series [4]; 7.5 ± 1.1 µM in series [5]. In series [6], this substance displayed a concentration for total growth inhibition (TGI) of 45.1 ± 4.5 µM. In addition, the CC50 in series [1] was 9 ± 2.1 µM; in series [2], 8.4 ± 1 µM; in the series with HTB-54 (lung carcinoma), 70 ± 2.9 µM; in series [3] it was more than 100 µM; in series [4], 74.8 ± 4 µM; in series [5], 50 ± 2.4 µM. The CC50 in series [6] is more than 100 µM.

Consider “Methyl 9-acridinecarboselenoate [Compound 13]”, for which the GI50 was found to be 6.6 ± 1.2 µM in series [1], 3.8 ± 0.1 µM in series [2], 4.2 ± 1.8 µM in series [4] and 6 ± 0.5 µM in series [5]. Also, the TGI in series [1] was 26.8 ± 1.0 µM; in series [2], 6.4 ± 0.2 µM; in series [4], 35.4 ± 4.7 µM; in series [5], 16.5 ± 1.9 µM; in series [6], more than 100 µM. Besides, the CC50 in series [1] was 65 ± 4.5 µM; in series [2], 8.9 ± 0.4 µM; in series [4], 83.4 ± 4.1 µM; in series [5], 66.6 ± 0.1 µM; in series [6], more than 100 µM.

As for “Methyl benzo[b]thiophene-2-carboselenoate [Compound 7]”, the GI50 in series [1] was 3.9 ± 1.2 µM; in series [2] it was 3.9 ± 0.6 µM; with HTB-54 (lung carcinoma) it was > 10 µM and 17.5 µM; in series [3], 29.2 ± 4.4 µM; in series [4], 6.9 ± 1.4 µM; in series [5] it was 3.7 ± 0.2 µM. Moreover, the GI50 in series [6] was > 10 µM and 18.4 µM. The TGI in series [1] stood at 6.9 ± 1.7 µM; in series [2] it was 6.8 ± 0.8 µM; in the series with HTB-54 (lung carcinoma), 55.4 ± 4.4 µM; in series [3] it was 58.8 ± 1.5 µM; in series [4], 61.6 ± 4.1 µM; in series [5], 7.4 ± 0.9 µM. In series [6], this substance came in with a TGI of 47.8 ± 3.9 µM. Further, the CC50 was 9.9 ± 0.8 µM in series [1]; 9.8 ± 1.1 µM in series [2]; 93.4 ± 4.8 µM in the series with HTB-54 (lung carcinoma); 88.3 ± 3.3 µM in series [3]; more than 100 µM in series [4]; 41.8 ± 4.5 µM in series [5]. Besides, in series [6], the CC50 was found to be 77.3 ± 4.5 µM.
